Test results published in ChEMBL document CHEMBL1201862, “PubChem BioAssay data set” (2004).
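How tested: cells in 96-well plates exposed to compound for 48 hours at five concentrations. Abbreviation: GI50, concentration required for 50% inhibition of growth.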 Calls of active or inactive are those of the source. Rule as the data show it: active = GI50 up to about 1.1 µM and inactive = higher.

Experiments:
Experiment in all cases: NCI tumour cell line growth inhibition, 48 h
HT-29 = test system: HT-29
NCI-H522 = test system: NCI-H522
CCRF-CEM = test system: CCRF-CEM
K562 = test system: K562
SK-MEL-28 = test system: SK-MEL-28
CAKI-1 = test system: CAKI-1
HCT-15 = test system: HCT-15
HCC 2998 = test system: HCC 2998
A549 = test system: A549
HL-60 = test system: HL-60
OVCAR-5 = test system: OVCAR-5
OVCAR-8 = test system: OVCAR-8
SF-539 = test system: SF-539
SK-OV-3 = test system: SK-OV-3
HOP-62 = test system: HOP-62
ACHN = test system: ACHN
IGROV-1 = test system: IGROV-1
786-0 = test system: 786-0
OVCAR-3 = test system: OVCAR-3
UO-31 = test system: UO-31
DLD-1 = test system: DLD-1
A498 = test system: A498
DMS-273 = test system: DMS-273
OVCAR-4 = test system: OVCAR-4
M14 = test system: M14
U-251 = test system: U-251
NCI-H226 = test system: NCI-H226
SNB-75 = test system: SNB-75
SF-268 = test system: SF-268
EKVX = test system: EKVX
SW-620 = test system: SW-620
MOLT-4 = test system: MOLT-4
Malme-3M = test system: Malme-3M
LXFL 529 = test system: LXFL 529
SNB-78 = test system: SNB-78
LOX IMVI = test system: LOX IMVI
SN12C = test system: SN12C
KM12 = test system: KM12
M19-MEL = test system: M19-MEL
RPMI-8226 = test system: RPMI-8226
UACC-257 = test system: UACC-257
HOP-18 = test system: HOP-18
SK-MEL-5 = test system: SK-MEL-5
SK-MEL-2 = test system: SK-MEL-2
UACC-62 = test system: UACC-62
TK-10 = test system: TK-10
RXF 393 = test system: RXF 393
SNB-19 = test system: SNB-19
NCI-H23 = test system: NCI-H23
SF-295 = test system: SF-295
DMS-114 = test system: DMS-114
COLO 205 = test system: COLO 205
MCF7 = test system: MCF7
BT-549 = test system: BT-549
MDA-MB-231 = test system: MDA-MB-231
DU-145 = test system: DU-145
NCI-H460 = test system: NCI-H460
NCI/ADR-RES = test system: NCI/ADR-RES
HOP-92 = test system: HOP-92
T47D = test system: T47D
PC-3 = test system: PC-3
Hs-578T = test system: Hs-578T
MDA-MB-435 = test system: MDA-MB-435
MDA-N = test system: MDA-N
SR = test system: SR
HCT-116 = test system: HCT-116
KM-20L2 = test system: KM-20L2

Cc1cc(N(CCC#N)CCC#N)ccc1/N=N/c1cc(Cl)ccc1Cl
GI50 (HT-29): 2.64 µM (inactive) | GI50 (NCI-H522): 1.49 µM (inactive) | GI50 (CCRF-CEM): 2.92 µM (inactive) | GI50 (K562): 2.78 µM (inactive) | GI50 (SK-MEL-28): 7.87 µM (inactive) | GI50 (CAKI-1): 3.5 µM (inactive) | GI50 (HCT-15): 2.05 µM | GI50 (HCC 2998): 16.6 µM (inactive) | GI50 (A549): 19.2 µM (inactive) | GI50 (HL-60): 3.39 µM (inactive) | GI50 (OVCAR-5): 14.4 µM (inactive) | GI50 (OVCAR-8): 7.74 µM (inactive) | GI50 (SF-539): 6.28 µM (inactive) | GI50 (SK-OV-3): 16.3 µM (inactive) | GI50 (HOP-62): 19.5 µM (inactive) | GI50 (ACHN): 12.8 µM (inactive) | GI50 (IGROV-1): 15.1 µM (inactive) | GI50 (786-0): 14.6 µM (inactive) | GI50 (OVCAR-3): 5.51 µM (inactive) | GI50 (UO-31): 16.7 µM (inactive) | GI50 (DLD-1): 10.6 µM (inactive) | GI50 (A498): 20.1 µM (inactive) | GI50 (DMS-273): 14.4 µM (inactive) | GI50 (OVCAR-4): 3.07 µM (inactive) | GI50 (M14): 3.46 µM (inactive) | GI50 (U-251): 18.3 µM (inactive) | GI50 (NCI-H226): 6.38 µM (inactive) | GI50 (SNB-75): 13 µM (inactive) | GI50 (SF-268): 15.6 µM (inactive) | GI50 (EKVX): 13.6 µM (inactive) | GI50 (SW-620): 2.36 µM (inactive) | GI50 (MOLT-4): 5.13 µM (inactive) | GI50 (Malme-3M): 4.98 µM (inactive) | GI50 (LXFL 529): 1.7 µM (inactive) | GI50 (SNB-78): 6.22 µM (inactive) | GI50 (LOX IMVI): 3.62 µM (inactive) | GI50 (SN12C): 13.4 µM (inactive) | GI50 (KM12): 15.2 µM (inactive) | GI50 (M19-MEL): 13.7 µM (inactive) | GI50 (RPMI-8226): 5.35 µM (inactive) | GI50 (UACC-257): 10.7 µM (inactive) | GI50 (HOP-18): 10.2 µM (inactive) | GI50 (SK-MEL-5): 16.4 µM (inactive) | GI50 (SK-MEL-2): 17.3 µM (inactive) | GI50 (UACC-62): 10.1 µM (inactive) | GI50 (TK-10): 11.1 µM (inactive) | GI50 (RXF 393): 10.5 µM (inactive) | GI50 (SNB-19): 17.5 µM (inactive) | GI50 (NCI-H23): 13.4 µM (inactive) | GI50 (SF-295): 19.6 µM (inactive) | GI50 (DMS-114): 6.59 µM (inactive) | GI50 (COLO 205): 2.04 µM (inactive)

COC(=O)CCc1cc(O)c2c(c1)C(C(=O)OC)C(c1ccc(O)c(O)c1)O2 (stereo unspecified)
GI50 (MCF7): 4.79 µM (inactive) | GI50 (HT-29): 27.2 µM (inactive) | GI50 (BT-549): 12.5 µM (inactive) | GI50 (MDA-MB-231): 11.7 µM (inactive) | GI50 (NCI-H522): 12.6 µM (inactive) | GI50 (CCRF-CEM): 3.21 µM (inactive) | GI50 (K562): 2.61 µM (inactive) | GI50 (SK-MEL-28): 8.93 µM (inactive) | GI50 (CAKI-1): 26.6 µM (inactive) | GI50 (HCT-15): 4.36 µM | GI50 (DU-145): > 41.9 µM (inactive) | GI50 (NCI-H460): 22.9 µM (inactive) | GI50 (HCC 2998): 5.02 µM (inactive) | GI50 (NCI/ADR-RES): 42.3 µM (inactive) | GI50 (HOP-92): 44 µM (inactive) | GI50 (A549): 43.4 µM (inactive) | GI50 (HL-60): 2.55 µM (inactive) | GI50 (OVCAR-5): > 65.5 µM (inactive) | GI50 (OVCAR-8): 21.8 µM (inactive) | GI50 (SF-539): 9.64 µM (inactive) | GI50 (SK-OV-3): 33.6 µM (inactive) | GI50 (HOP-62): 15.1 µM (inactive) | GI50 (ACHN): 33.7 µM (inactive) | GI50 (IGROV-1): 12.1 µM (inactive) | GI50 (786-0): 26.1 µM (inactive) | GI50 (OVCAR-3): 3.71 µM (inactive) | GI50 (T47D): 6.37 µM (inactive) | GI50 (UO-31): 26.2 µM (inactive) | GI50 (PC-3): 19.6 µM (inactive) | GI50 (Hs-578T): 25.2 µM (inactive) | GI50 (A498): > 44.9 µM (inactive) | GI50 (MDA-MB-435): 1.48 µM (inactive) | GI50 (OVCAR-4): > 58.7 µM (inactive) | GI50 (M14): 13.9 µM (inactive) | GI50 (U-251): 11.8 µM (inactive) | GI50 (MDA-N): 1.9 µM (inactive) | GI50 (NCI-H226): 26.4 µM (inactive) | GI50 (SNB-75): 2.35 µM (inactive) | GI50 (SF-268): 16.3 µM (inactive) | GI50 (EKVX): 34.4 µM (inactive) | GI50 (SW-620): 6.17 µM (inactive) | GI50 (MOLT-4): 5.09 µM (inactive) | GI50 (Malme-3M): 6.97 µM (inactive) | GI50 (LOX IMVI): 8.04 µM (inactive) | GI50 (SN12C): 21.9 µM (inactive) | GI50 (KM12): 3.88 µM (inactive) | GI50 (RPMI-8226): 22 µM (inactive) | GI50 (UACC-257): > 48.2 µM (inactive) | GI50 (SK-MEL-5): 4.06 µM (inactive) | GI50 (SK-MEL-2): 3.39 µM (inactive) | GI50 (SR): 3.45 µM (inactive) | GI50 (UACC-62): 8.15 µM (inactive) | GI50 (TK-10): 53.1 µM (inactive) | GI50 (RXF 393): 18.7 µM (inactive) | GI50 (SNB-19): 11.1 µM (inactive) | GI50 (HCT-116): 7.19 µM (inactive) | GI50 (NCI-H23): 26.6 µM (inactive) | GI50 (SF-295): 17.7 µM (inactive) | GI50 (COLO 205): 31.4 µM (inactive)

CCCC(=O)OC1C(C2COC(C)(C)O2)OC2OC(C)(C)OC21 (stereo unspecified)
GI50 (HT-29): > 100 µM (inactive) | GI50 (NCI-H522): > 100 µM (inactive) | GI50 (CCRF-CEM): > 100 µM (inactive) | GI50 (K562): > 100 µM (inactive) | GI50 (SK-MEL-28): > 100 µM (inactive) | GI50 (NCI-H460): > 100 µM (inactive) | GI50 (HOP-92): > 100 µM (inactive) | GI50 (HL-60): > 100 µM (inactive) | GI50 (OVCAR-5): > 100 µM (inactive) | GI50 (OVCAR-8): > 100 µM (inactive) | GI50 (SK-OV-3): > 100 µM (inactive) | GI50 (HOP-62): > 100 µM (inactive) | GI50 (ACHN): > 100 µM (inactive) | GI50 (IGROV-1): > 100 µM (inactive) | GI50 (UO-31): > 100 µM (inactive) | GI50 (A498): > 100 µM (inactive) | GI50 (DMS-273): > 100 µM (inactive) | GI50 (M14): > 100 µM (inactive) | GI50 (U-251): > 100 µM (inactive) | GI50 (EKVX): > 100 µM (inactive) | GI50 (MOLT-4): > 100 µM (inactive) | GI50 (SNB-78): > 100 µM (inactive) | GI50 (KM-20L2): > 100 µM (inactive) | GI50 (KM12): > 100 µM (inactive) | GI50 (M19-MEL): > 100 µM (inactive) | GI50 (UACC-257): > 100 µM (inactive) | GI50 (SR): > 100 µM (inactive) | GI50 (UACC-62): > 100 µM (inactive) | GI50 (TK-10): > 100 µM (inactive) | GI50 (RXF 393): > 100 µM (inactive) | GI50 (SNB-19): > 100 µM (inactive) | GI50 (HCT-116): > 100 µM (inactive) | GI50 (NCI-H23): > 100 µM (inactive) | GI50 (SF-295): > 100 µM (inactive) | GI50 (DMS-114): > 100 µM (inactive)
